This note sets out measurements from PubChem BioAssay (NCI).

Where “and” joins values, the source holds several entries; their conditions need not be identical. Identical values can stand only once.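 The compound was tested at five concentrations on cells cultured in 96-well plates, with a 48-hour exposure period. Abbreviation: GI50, concentration required for 50% inhibition of growth. The concentration for full growth arrest is given as TGI.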

Among the test systems are OVCAR-4 ovarian; COLO 205 colon; ACHN renal; SNB-19 CNS; TK-10 renal; MDA-MB-435; SK-MEL-5 melanoma; RPMI-8226 leukemia; CCRF-CEM leukemia; HCC-2998 colon.
Common to all, as to assay: inhibition of tumour cell growth, NCI panel, 48 h

Take `CC[C@@]1(OC(=O)CN)C(=O)OCc2c1cc1n(c2=O)Cc2cc3c(N)c4c(cc3nc2-1)OCO4`: the GI50 in the assay on OVCAR-4 ovarian is 0.0507 µM and 0.0386 µM; in the assay on COLO 205 colon, 41.9 nM and 110 nM; with ACHN renal, < 0.0001 µM; in the assay with SNB-19 CNS, 0.000124 µM; with TK-10 renal it was 16.7 nM and 104 nM; in the assay on MDA-MB-435, 3.28 nM and 18.3 nM. For the same compound, the GI50 is 0.182 nM in the assay on SK-MEL-5 melanoma, 2.61 nM with RPMI-8226 leukemia, < 0.1 nM in the assay on CCRF-CEM leukemia and 0.0116 µM with HCC-2998 colon. Moreover, the TGI in the assay with OVCAR-4 ovarian is 0.356 µM and 0.658 µM; with COLO 205 colon it was 0.961 µM; in the assay on ACHN renal, 0.104 µM and 0.0152 µM; in the assay with SNB-19 CNS it was > 100 µM; in the assay with TK-10 renal, > 100 µM; with SK-MEL-5 melanoma, 0.139 µM. Further, the values for the TGI with RPMI-8226 leukemia, in the assay on CCRF-CEM leukemia and in the assay with HCC-2998 colon were 0.719 µM, 0.551 µM and 0.969 µM, respectively.

As for `N#CSCC(=O)c1ccc(Cl)cc1`, the GI50 in the assay with OVCAR-4 ovarian is 12.4 µM; with COLO 205 colon it was 2650 nM; in the assay with ACHN renal, 5.55 µM; in the assay on SNB-19 CNS it was 14.1 µM; with TK-10 renal, 3210 nM; in the assay on MDA-MB-435 it was 2280 nM. The GI50 is 2310 nM in the assay on SK-MEL-5 melanoma, 1440 nM with RPMI-8226 leukemia, 1500 nM in the assay with CCRF-CEM leukemia and 12.1 µM in the assay on HCC-2998 colon. In addition, the TGI with OVCAR-4 ovarian was > 100 µM; in the assay on COLO 205 colon, 7.94 µM; with ACHN renal, 19.9 µM; in the assay with SNB-19 CNS, > 73 µM; with TK-10 renal, 13.6 µM; with MDA-MB-435, 6.37 µM. The TGI in the assay with SK-MEL-5 melanoma amounted to 14.7 µM; in the assay on RPMI-8226 leukemia it was 4.65 µM; in the assay with CCRF-CEM leukemia, 20.6 µM; with HCC-2998 colon it was 27.8 µM.

With `CC1(C)CC2CC(C)(CN2c2ncnc3ccc(Br)cc23)C1` (centres undefined), the GI50 in the assay on OVCAR-4 ovarian is 14.1 µM; with COLO 205 colon, 15400 nM; in the assay on ACHN renal, 14.1 µM; with SNB-19 CNS, 14.4 µM; in the assay with TK-10 renal, 11400 nM; in the assay with MDA-MB-435, 3980 nM. For the same compound, the GI50 is 8880 nM with SK-MEL-5 melanoma, 2580 nM with RPMI-8226 leukemia, 6610 nM in the assay on CCRF-CEM leukemia and 11.7 µM in the assay with HCC-2998 colon. Also, the TGI came to 27.1 µM in the assay with OVCAR-4 ovarian; 29.8 µM in the assay with COLO 205 colon; 27 µM in the assay on ACHN renal; 30.5 µM in the assay on SNB-19 CNS; 23.6 µM in the assay with TK-10 renal; 27.7 µM in the assay with MDA-MB-435. Besides, the TGI with SK-MEL-5 melanoma is 21.6 µM; with RPMI-8226 leukemia, 13.5 µM; in the assay with CCRF-CEM leukemia, 39.8 µM; with HCC-2998 colon it was 23.9 µM.

Consider `CSc1ccc(C2=NN(C(=O)c3ccc(N)cc3)C(c3ccc(F)cc3)C2)cc1` (centres undefined), for which the GI50 with OVCAR-4 ovarian was 15 µM; with COLO 205 colon, 7450 nM; in the assay on ACHN renal, 7.35 µM; in the assay with SNB-19 CNS, 8.94 µM; with TK-10 renal it was 7500 nM; in the assay with MDA-MB-435 it was 6550 nM. For the same compound, the GI50 is 5660 nM in the assay with SK-MEL-5 melanoma, 1880 nM in the assay on RPMI-8226 leukemia, 314 nM in the assay with CCRF-CEM leukemia and 8.79 µM in the assay with HCC-2998 colon. The TGI in the assay on OVCAR-4 ovarian worked out at 31.9 µM; in the assay on COLO 205 colon, 22.7 µM; in the assay with ACHN renal, 19.7 µM; in the assay on SNB-19 CNS it was 22.3 µM; with TK-10 renal, 26.1 µM; in the assay with MDA-MB-435, 23.6 µM. Further, the TGI with SK-MEL-5 melanoma is 18.8 µM; with RPMI-8226 leukemia, 4.41 µM; with CCRF-CEM leukemia, 1.72 µM; in the assay on HCC-2998 colon, 21.8 µM.

As for `N#CC[C@H](C1CCCC1)n1cc(-c2ncnc3[nH]ccc23)cn1`, the GI50 in the assay with OVCAR-4 ovarian is 20.4 µM; in the assay on COLO 205 colon, 24600 nM; in the assay with ACHN renal it was 23.3 µM; with SNB-19 CNS it was 35.2 µM; with TK-10 renal it was 13200 nM; with MDA-MB-435, 26400 nM. Besides, the GI50 in the assay on SK-MEL-5 melanoma is 17200 nM; in the assay with RPMI-8226 leukemia, 36000 nM; in the assay with CCRF-CEM leukemia, 29100 nM; with HCC-2998 colon, 20.6 µM. Besides, the TGI was > 79.1 µM in the assay on OVCAR-4 ovarian; 67.1 µM in the assay with COLO 205 colon; > 100 µM in the assay on ACHN renal; > 100 µM in the assay on SNB-19 CNS; > 100 µM in the assay on TK-10 renal; > 93.2 µM with MDA-MB-435. The TGI was 49 µM with SK-MEL-5 melanoma, > 100 µM with RPMI-8226 leukemia, > 100 µM in the assay with CCRF-CEM leukemia and > 91.7 µM with HCC-2998 colon.

On to `CNCCOc1nc2c3cnccc3cc(-c3cc(OC)c(OC)c(OC)c3)c2c2ccncc12`, for which the GI50 in the assay on OVCAR-4 ovarian is 0.161 µM; in the assay with COLO 205 colon it was 57.5 nM; in the assay with ACHN renal, 0.015 µM; in the assay with SNB-19 CNS it was 0.0253 µM; in the assay on TK-10 renal, 68.6 nM; in the assay on MDA-MB-435, 115 nM. Besides, the GI50 is 28.8 nM in the assay on SK-MEL-5 melanoma, 22.9 nM with RPMI-8226 leukemia, < 13 nM in the assay with CCRF-CEM leukemia and 0.0454 µM with HCC-2998 colon. Further, the TGI was 0.749 µM in the assay with OVCAR-4 ovarian; 0.698 µM in the assay on COLO 205 colon; 0.0598 µM in the assay with ACHN renal; 0.349 µM in the assay with SNB-19 CNS; 0.366 µM in the assay with TK-10 renal; 0.327 µM with MDA-MB-435. The TGI in the assay on SK-MEL-5 melanoma came out at 0.144 µM; in the assay on RPMI-8226 leukemia it was 0.113 µM; with CCRF-CEM leukemia, 1.1 µM; with HCC-2998 colon it was 0.213 µM.

For the compound `COC(=O)Nc1nc2ccc(Sc3ccccc3)cc2[nH]1`, the GI50 is 0.856 µM in the assay on OVCAR-4 ovarian; 188 nM in the assay with COLO 205 colon; 1.19 µM with ACHN renal; 0.267 µM in the assay with SNB-19 CNS; 1270 nM with TK-10 renal; 30.7 nM with MDA-MB-435. The GI50 with SK-MEL-5 melanoma was 146 nM; in the assay with RPMI-8226 leukemia it was 358 nM; with CCRF-CEM leukemia, 249 nM; in the assay on HCC-2998 colon, 0.22 µM. Further, the TGI with OVCAR-4 ovarian was 6.34 µM; in the assay on COLO 205 colon, 0.533 µM; in the assay on ACHN renal, 22.9 µM; in the assay on SNB-19 CNS, 28.9 µM; in the assay on TK-10 renal, 17.3 µM; with MDA-MB-435 it was 0.111 µM. Further, the TGI with SK-MEL-5 melanoma was 4.08 µM; with RPMI-8226 leukemia it was > 36.6 µM; with CCRF-CEM leukemia, > 100 µM; with HCC-2998 colon, 3.03 µM.
